SMILES strings stand for the structures. A value given as a limit tells only on which side of the number the result lay.

The nature of data set [1]: Inhibition of HDAC by fluorescence assay.
A further data set deals with PC-3. Put plainly: Antiproliferative activity against human PC3 cells. In kind it is functional.
For a further data set, the system named is MDA-MB-231. Kind of data set: Antiproliferative activity against human MDA-MB-231 cells. Type of data set: functional.
Another data set concerns ACHN. Put plainly: Antiproliferative activity against human ACHN cells. In kind it is functional.
In a further data set the test system is HCT-15. Put plainly: Antiproliferative activity against human HCT15 cells. Type of data set: functional.
The next data set relates to NCI-H23. Put plainly: Antiproliferative activity against human NCI-H23 cells. Type of data set: functional.
A short description of data set [2]: Metabolic stability in mouse liver microsomes assessed as compound remaining at 1 uM after 30 mins in the presence of NADPH. To be noted: read-out: Stability. Type of data set: ADME, Microsome.
Data set [3] is described as follows: Metabolic stability in mouse liver microsomes assessed as compound remaining at 1 uM after 30 mins in the absence of NADPH. Type of data set: ADME, Microsome. To be noted: read-out: Stability. On the technique in general: Liver microsomes are a subcellular fraction often used to study metabolism.
A short description of data set [4]: Chemical stability in buffer assessed as compound remaining at 1 uM after 30 mins. In kind it is physicochemical. To be noted: read-out: Stability.
A further data set deals with NUGC-3. Kind of data set: Antiproliferative activity against human NUGC3 cells. In kind it is functional.

A word on the IC50: it is the midpoint of a concentration-inhibition curve. In general, GI50 refers to the concentration giving 50% growth inhibition. A low value points to greater sensitivity of the cells. In turn, `O=C(CCC1=CCN(Cc2ccccc2)C1=O)NO` showed an IC50 in data set [1] of 120 nM. For the same molecule, the GI50 amounted to 4430 nM in the data set with PC-3; 990 nM with MDA-MB-231; 1080 nM in the data set on ACHN; 5370 nM in the data set with HCT-15; 4290 nM in the data set on NCI-H23.

`O=C(CCC1=CCN(CCc2ccccc2)C1=O)NO` yielded an IC50 in data set [1] of 120 nM. This molecule registered a GI50 with MDA-MB-231 of 990 nM. Besides, the remaining at 0.5 h, 1 µM came to 82.9% in [2], 85.5% in data set [3] and 96.7% in data set [4].

Take `COc1ccc(CCCN2CC=C(CCC(=O)NO)C2=O)cc1`: the IC50 in [1] amounted to 270 nM. Besides, the GI50 is 7000 nM with PC-3; 2560 nM with MDA-MB-231; 4750 nM with ACHN; more than 10000 nM in the data set on HCT-15; 2510 nM in the data set on NCI-H23; 5480 nM in the data set on NUGC-3.

Consider `COc1cccc(CCCN2CC=C(CCC(=O)NO)C2=O)c1`, for which the IC50 in data set [1] turned out to be 160 nM. The GI50 with PC-3 is 2590 nM; with MDA-MB-231, 1880 nM; with ACHN, 2480 nM; in the data set on HCT-15, more than 10000 nM; in the data set on NCI-H23 it was 1170 nM; with NUGC-3, 3930 nM.

Molecule `COc1ccccc1CCCN1CC=C(CCC(=O)NO)C1=O` registered an IC50 in data set [1] of 130 nM. For the same molecule, the GI50 with PC-3 is 3510 nM; in the data set on MDA-MB-231, 1500 nM; with ACHN, 2530 nM; with HCT-15 it was more than 10000 nM; in the data set on NCI-H23 it was 4490 nM; in the data set with NUGC-3 it was 2020 nM.

`O=C(CCC1=CCN(CCc2ccc(C(F)(F)F)cc2)C1=O)NO` displayed an IC50 in [1] of 70 nM. The GI50 in the data set with PC-3 worked out at 2380 nM; in the data set on MDA-MB-231, 1170 nM; in the data set with ACHN it was 2480 nM; in the data set with HCT-15 it was 2200 nM; in the data set with NCI-H23, 1120 nM; with NUGC-3, 1080 nM. Also, the remaining at 0.5 h, 1 µM in [2] is 75.9%; in data set [3] it was 73.9%; in data set [4], 102%.

`O=C(CCC1=CCN(CCc2cccc(C(F)(F)F)c2)C1=O)NO`: it took 120 nM to reach half-maximal inhibition in data set [1] (IC50). The GI50 in the data set with PC-3 came to 2770 nM; in the data set with MDA-MB-231, 2170 nM; in the data set on ACHN it was 1170 nM; in the data set on HCT-15, 6010 nM; in the data set on NCI-H23, 1110 nM; in the data set with NUGC-3, 920 nM.

Regarding `COc1ccc(CCN2CC=C(CCC(=O)NO)C2=O)cc1`, the IC50 in [1] amounted to 190 nM. Besides, the GI50 with PC-3 was 3170 nM; in the data set with MDA-MB-231, 1080 nM; in the data set on ACHN it was 2380 nM; in the data set on HCT-15, more than 10000 nM; with NCI-H23, 4020 nM; in the data set on NUGC-3 it was 1420 nM. Besides, the figures for the remaining at 0.5 h, 1 µM in [2], in data set [3] and in [4] were 98.3%, 92% and 102%, respectively.

`COc1cccc(CCN2CC=C(CCC(=O)NO)C2=O)c1` gave an IC50 in data set [1] of 160 nM. The GI50 in the data set with PC-3 was 2590 nM; in the data set on MDA-MB-231 it was 1880 nM; in the data set on ACHN, 2480 nM; in the data set on HCT-15 it was more than 10000 nM; in the data set on NCI-H23, 1170 nM; with NUGC-3, 3930 nM.

Take `COc1ccccc1CCN1CC=C(CCC(=O)NO)C1=O`: the IC50 in [1] stood at 130 nM. Besides, the GI50 with PC-3 was 3510 nM; in the data set with MDA-MB-231, 1500 nM; with ACHN it was 2530 nM; in the data set with HCT-15, more than 10000 nM; with NCI-H23, 4490 nM; in the data set on NUGC-3 it was 2020 nM.

Regarding `O=C(CCC1=CCN(Cc2ccc(C(F)(F)F)cc2)C1=O)NO`, the IC50 in [1] came out at 260 nM. For the same molecule, the GI50 in the data set with PC-3 was determined as 4360 nM; in the data set on MDA-MB-231 it was 3070 nM; in the data set with ACHN, 4290 nM; with HCT-15, 4540 nM; in the data set on NCI-H23, 6640 nM; in the data set on NUGC-3 it was 3230 nM.

The molecule `O=C(CCC1=CCN(Cc2cccc(C(F)(F)F)c2)C1=O)NO` yielded an IC50 in data set [1] of 120 nM. For the same molecule, the GI50 in the data set with PC-3 turned out to be 880 nM; in the data set with MDA-MB-231, 220 nM; in the data set on ACHN it was 670 nM; in the data set on HCT-15, 540 nM; with NCI-H23, 680 nM; in the data set with NUGC-3 it was 160 nM.

`COc1ccc(CN2CC=C(CCC(=O)NO)C2=O)cc1` showed a half-maximal inhibitory concentration (IC50) in [1] of 450 nM. For the same molecule, the GI50 in the data set on PC-3 was determined as 3120 nM; in the data set with MDA-MB-231 it was 1630 nM; in the data set on ACHN, 2480 nM; in the data set on HCT-15, 1720 nM; in the data set on NCI-H23 it was 1640 nM; in the data set on NUGC-3 it was 1110 nM.

`COc1cccc(CN2CC=C(CCC(=O)NO)C2=O)c1` had an IC50 in [1] of 380 nM. For the same molecule, the GI50 in the data set on PC-3 worked out at 3890 nM; in the data set with MDA-MB-231 it was 1770 nM; with ACHN, 4430 nM; in the data set with HCT-15, 2820 nM; in the data set with NCI-H23, 1970 nM; in the data set with NUGC-3, 1750 nM.

On to `COc1ccccc1CN1CC=C(CCC(=O)NO)C1=O`, for which the IC50 in data set [1] is more than 10000 nM. For the same molecule, the concentration for 50% growth inhibition (GI50) in the data set on PC-3 is 3560 nM; in the data set with MDA-MB-231, 6030 nM; in the data set on ACHN it was more than 10000 nM; with HCT-15 it was more than 10000 nM; in the data set with NCI-H23, 6130 nM; with NUGC-3, more than 10000 nM.

Take `O=C1CC2(CCCC2)CC(=O)N1CCCCN1CCN(c2ncccn2)CC1` [BUSPIRONE]: the results for the remaining at 0.5 h, 1 µM in data set [2], in data set [3] and in data set [4] were 106%, 0.1% and 108%, respectively.

Source of the values: ChEMBL document CHEMBL2029274, “Structure and property based design, synthesis and biological evaluation of γ-lactam based HDAC inhibitors: part II” (Bioorg Med Chem Lett, 2012).
